Data set [1] has as its target T1, 3-hydroxy-3-methylglutaryl-coenzyme A reductase (Homo sapiens, UniProt P04035).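 Also: enzyme inhibition assay of HMG-CoA reductase using radiolabeled [14C]HMG-CoA as substrate; in other assays of this panel Not Active means under 50% inhibition at 10 µM.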
T1 sequence (P04035 whole entry): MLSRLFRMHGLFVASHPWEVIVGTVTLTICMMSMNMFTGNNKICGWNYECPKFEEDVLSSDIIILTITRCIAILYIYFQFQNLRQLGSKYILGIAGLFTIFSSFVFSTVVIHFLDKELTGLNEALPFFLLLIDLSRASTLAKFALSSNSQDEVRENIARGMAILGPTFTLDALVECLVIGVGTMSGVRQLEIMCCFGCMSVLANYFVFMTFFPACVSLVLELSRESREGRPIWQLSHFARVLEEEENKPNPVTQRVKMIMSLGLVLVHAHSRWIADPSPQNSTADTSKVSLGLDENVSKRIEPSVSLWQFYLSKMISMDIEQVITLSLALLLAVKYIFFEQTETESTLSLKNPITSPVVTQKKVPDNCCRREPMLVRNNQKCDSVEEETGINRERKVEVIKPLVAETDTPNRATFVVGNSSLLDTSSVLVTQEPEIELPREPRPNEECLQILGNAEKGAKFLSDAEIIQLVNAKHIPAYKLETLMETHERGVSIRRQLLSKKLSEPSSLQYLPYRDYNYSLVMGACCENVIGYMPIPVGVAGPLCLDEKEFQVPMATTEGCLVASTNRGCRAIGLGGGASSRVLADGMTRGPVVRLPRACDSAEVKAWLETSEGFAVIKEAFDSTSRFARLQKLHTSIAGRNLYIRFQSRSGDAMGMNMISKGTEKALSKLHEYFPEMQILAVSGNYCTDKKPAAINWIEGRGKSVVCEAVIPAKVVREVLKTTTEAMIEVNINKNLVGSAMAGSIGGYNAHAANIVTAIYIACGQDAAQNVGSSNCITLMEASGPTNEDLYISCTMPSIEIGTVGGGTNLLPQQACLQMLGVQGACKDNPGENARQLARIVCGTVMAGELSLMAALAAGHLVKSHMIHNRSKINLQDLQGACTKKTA
Set-up: species or system Escherichia coli.

Data set [2] addresses Carbonic anhydrase 2 (Homo sapiens, UniProt P00918). The data set is described as follows: DRUGMATRIX: Carbonic Anhydrase II enzyme inhibition (substrate: 4-Nitrophenyl acetate (4-NPA)). Conditions: erythrocyte; Not Active = under 50% inhibition at 10 µM. Type of data set: tissue-based, Erythrocyte.
The target in data set [3] is Glycine receptor (Rattus norvegicus, UniProt P22771+P24524+P07727+P20781). Type of data set: cell membranes, Wistar, Spinal cord, Membrane. Also: in other assays of this panel Not Active means under 50% inhibition at 10 µM.
Data set [4] has as its target Beta-2 adrenergic receptor (Homo sapiens, UniProt P07550). The data set is described as follows: DRUGMATRIX: Adrenergic beta2 radioligand binding (ligand: [3H] CGP-12177). In kind it is cell membranes, CHO, Membrane. Conditions: cho; Not Active = under 50% inhibition at 10 µM.
The target in data set [5] is Vasopressin V1a receptor (Homo sapiens, UniProt P37288). In kind it is cell membranes, Membrane. Conditions: hek293. Also: in other assays of this panel Not Active means under 50% inhibition at 10 µM.
Chain of Vasopressin V1a receptor (P37288 whole entry): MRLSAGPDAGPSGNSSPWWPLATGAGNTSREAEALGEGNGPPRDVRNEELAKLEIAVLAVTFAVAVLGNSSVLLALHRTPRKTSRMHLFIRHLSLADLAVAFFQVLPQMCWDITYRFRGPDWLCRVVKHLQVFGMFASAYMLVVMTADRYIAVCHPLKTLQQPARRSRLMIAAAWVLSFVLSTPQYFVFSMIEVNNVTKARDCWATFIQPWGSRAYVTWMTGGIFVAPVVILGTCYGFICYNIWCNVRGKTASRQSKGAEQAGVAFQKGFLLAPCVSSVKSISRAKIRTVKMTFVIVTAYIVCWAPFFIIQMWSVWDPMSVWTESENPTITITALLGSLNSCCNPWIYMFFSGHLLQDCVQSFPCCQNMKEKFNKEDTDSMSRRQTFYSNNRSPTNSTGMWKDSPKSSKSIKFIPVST
Data set [6] concerns the target Insulin receptor (Rattus norvegicus, UniProt P15127). In kind it is cell membranes, Wistar, Liver, Membrane. Also: in other assays of this panel Not Active means under 50% inhibition at 10 µM.
Data set [7] deals with Voltage-gated inwardly rectifying potassium channel KCNH2 (Homo sapiens, UniProt Q12809). The following applies: hek293.
Chain of Voltage-gated inwardly rectifying potassium channel KCNH2 (Q12809 whole entry): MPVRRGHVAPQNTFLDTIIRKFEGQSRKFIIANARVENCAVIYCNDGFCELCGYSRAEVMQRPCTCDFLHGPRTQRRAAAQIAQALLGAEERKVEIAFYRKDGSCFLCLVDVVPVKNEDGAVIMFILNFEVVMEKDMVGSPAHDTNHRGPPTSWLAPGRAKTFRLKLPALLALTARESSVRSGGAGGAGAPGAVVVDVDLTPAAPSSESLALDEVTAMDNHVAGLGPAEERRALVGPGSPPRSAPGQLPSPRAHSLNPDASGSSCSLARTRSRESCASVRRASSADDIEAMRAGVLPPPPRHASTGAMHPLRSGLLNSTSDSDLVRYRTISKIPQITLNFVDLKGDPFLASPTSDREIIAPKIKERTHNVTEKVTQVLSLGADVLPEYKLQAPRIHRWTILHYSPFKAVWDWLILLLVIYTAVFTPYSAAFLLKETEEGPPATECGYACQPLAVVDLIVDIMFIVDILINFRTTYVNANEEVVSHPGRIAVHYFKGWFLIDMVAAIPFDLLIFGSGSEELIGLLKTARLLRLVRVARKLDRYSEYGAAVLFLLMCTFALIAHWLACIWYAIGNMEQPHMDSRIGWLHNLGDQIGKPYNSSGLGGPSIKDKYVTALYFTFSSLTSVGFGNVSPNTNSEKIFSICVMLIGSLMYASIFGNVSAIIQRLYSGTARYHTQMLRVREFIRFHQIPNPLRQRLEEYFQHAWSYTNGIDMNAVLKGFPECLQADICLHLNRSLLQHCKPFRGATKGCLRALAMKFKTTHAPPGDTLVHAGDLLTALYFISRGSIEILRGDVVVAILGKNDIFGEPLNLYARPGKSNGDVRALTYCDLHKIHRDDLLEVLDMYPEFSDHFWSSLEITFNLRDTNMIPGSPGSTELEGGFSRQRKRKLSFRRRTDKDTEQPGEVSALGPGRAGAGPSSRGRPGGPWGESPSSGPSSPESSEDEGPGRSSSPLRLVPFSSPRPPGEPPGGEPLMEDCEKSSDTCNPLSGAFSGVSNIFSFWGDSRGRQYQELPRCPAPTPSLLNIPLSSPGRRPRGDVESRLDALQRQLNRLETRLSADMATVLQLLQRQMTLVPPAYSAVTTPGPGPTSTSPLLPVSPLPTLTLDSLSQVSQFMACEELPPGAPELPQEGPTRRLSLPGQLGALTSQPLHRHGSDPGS

Chain of Insulin receptor (P15127 27-759 limits assumed): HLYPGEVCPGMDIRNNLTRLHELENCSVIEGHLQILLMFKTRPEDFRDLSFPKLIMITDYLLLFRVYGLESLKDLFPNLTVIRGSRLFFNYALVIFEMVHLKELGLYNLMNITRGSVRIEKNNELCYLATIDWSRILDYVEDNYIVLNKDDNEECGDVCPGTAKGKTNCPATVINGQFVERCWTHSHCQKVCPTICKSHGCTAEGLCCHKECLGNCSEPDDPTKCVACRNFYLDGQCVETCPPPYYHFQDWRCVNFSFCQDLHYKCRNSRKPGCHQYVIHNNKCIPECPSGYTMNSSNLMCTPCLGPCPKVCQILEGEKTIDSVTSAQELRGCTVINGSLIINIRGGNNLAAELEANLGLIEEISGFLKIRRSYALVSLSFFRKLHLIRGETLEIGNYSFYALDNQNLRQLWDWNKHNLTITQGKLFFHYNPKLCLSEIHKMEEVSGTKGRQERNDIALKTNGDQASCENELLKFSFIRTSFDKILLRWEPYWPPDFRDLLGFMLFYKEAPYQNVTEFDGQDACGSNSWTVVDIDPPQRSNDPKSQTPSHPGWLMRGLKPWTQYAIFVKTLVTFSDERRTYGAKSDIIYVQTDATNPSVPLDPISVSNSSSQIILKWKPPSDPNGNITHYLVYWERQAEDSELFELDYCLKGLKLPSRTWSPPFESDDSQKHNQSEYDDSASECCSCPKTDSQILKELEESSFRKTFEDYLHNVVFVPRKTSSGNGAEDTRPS
Chain of Insulin receptor (P15127 764-1383 limits assumed): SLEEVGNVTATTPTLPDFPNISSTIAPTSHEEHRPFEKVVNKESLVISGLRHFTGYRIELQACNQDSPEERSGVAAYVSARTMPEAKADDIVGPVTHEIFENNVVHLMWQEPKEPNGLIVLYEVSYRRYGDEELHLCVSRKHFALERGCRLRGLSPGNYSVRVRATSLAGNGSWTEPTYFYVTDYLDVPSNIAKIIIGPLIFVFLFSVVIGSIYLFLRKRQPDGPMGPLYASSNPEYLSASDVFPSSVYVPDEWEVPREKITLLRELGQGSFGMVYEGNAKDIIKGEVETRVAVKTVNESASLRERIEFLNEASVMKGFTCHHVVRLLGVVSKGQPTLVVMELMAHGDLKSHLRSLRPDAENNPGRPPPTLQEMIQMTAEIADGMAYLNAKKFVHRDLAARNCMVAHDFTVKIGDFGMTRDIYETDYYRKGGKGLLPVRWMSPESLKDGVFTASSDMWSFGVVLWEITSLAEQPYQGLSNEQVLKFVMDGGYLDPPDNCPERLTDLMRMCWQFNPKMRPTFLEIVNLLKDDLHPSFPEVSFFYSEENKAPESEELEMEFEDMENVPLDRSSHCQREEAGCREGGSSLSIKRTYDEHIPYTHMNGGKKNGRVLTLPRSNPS

Consider `CN(Cc1cnc2nc(N)nc(N)c2n1)c1ccc(C(=O)N[C@@H](CCC(=O)O)C(=O)O)cc1` [METHOTREXATE], for which the concentration for half-maximal inhibition (IC50) entry in data set [1], in data set [2], in data set [3], in data set [4], in data set [5] and in data set [6] was “Not Active” each time. The IC50 result in data set [7] was “Not Active”. In addition, the Ki entry in data set [7] is on record as “Not Active”.

As to `COC(=O)c1ccccc1O` [METHYL SALICYLATE], the IC50 entry in data set [1], in data set [2], in data set [3], in data set [4], in data set [5] and in data set [6] was “Not Active” in each case. Also, in data set [7], the IC50 entry was “Not Active”. In addition, the inhibition constant (Ki) entry in data set [7] is recorded as “Not Active”.

For `COc1ccc2cc(CCC(C)=O)ccc2c1` [NABUMETONE], the IC50 entry in data set [1], in data set [2], in data set [3], in data set [4], in data set [5] and in data set [6] was “Not Active” in each case. In addition, the IC50 entry in data set [7] is on record as “Not Active”. Also, the Ki entry in data set [7] is listed as “Not Active”.

Consider `O=C(O)c1cccnc1` [NIACIN], for which the IC50 entry in data set [1], in data set [2], in data set [3], in data set [4], in data set [5] and in data set [6] was “Not Active” each time. Further, the IC50 result in data set [7] is given as “Not Active”. Moreover, in data set [7], the Ki result is given as “Not Active”.

For the molecule `CNC(=C[N+](=O)[O-])NCCSCc1csc(CN(C)C)n1` [NIZATIDINE], the IC50 result in data set [1], in data set [2], in data set [3], in data set [4], in data set [5] and in data set [6] was “Not Active” each time. The IC50 entry in data set [7] is listed as “Not Active”. Moreover, in data set [7], the Ki result is “Not Active”.

For the molecule `C[C@]12C/C(=C/O)C(=O)C[C@@H]1CC[C@@H]1[C@@H]2CC[C@@]2(C)[C@H]1CC[C@]2(C)O` [OXYMETHOLONE], the half-maximal inhibitory concentration (IC50) entry in data set [1], in data set [2], in data set [3], in data set [4], in data set [5] and in data set [6] was “Not Active” each time. Further, in data set [7], the IC50 result is given as “Not Active”. The Ki result in data set [7] is recorded as “Not Active”.

As for `CC(C)(CO)C(O)C(=O)NCCCO` (stereo not given) [PANTHENOL], the IC50 result in data set [1], in data set [2], in data set [3], in data set [4], in data set [5] and in data set [6] was “Not Active” in each case. In addition, in data set [7], the half-inhibitory concentration (IC50) entry is given as “Not Active”. Further, the Ki result in data set [7] is on record as “Not Active”.

As to `COc1ccc(Cc2nccc3cc(OC)c(OC)cc23)cc1OC` [PAPAVERINE], the IC50 entry in data set [1], in data set [2], in data set [3], in data set [4], in data set [5] and in data set [6] was “Not Active” each time. Also, the IC50 result in data set [7] is given as “Not Active”. The Ki entry in data set [7] was “Not Active”.

For `CCCCC1C(=O)N(c2ccccc2)N(c2ccccc2)C1=O` [PHENYLBUTAZONE], the IC50 entry in data set [1], in data set [2], in data set [3], in data set [4], in data set [5] and in data set [6] was “Not Active” throughout. Besides, in data set [7], the IC50 entry was “Not Active”. The Ki entry in data set [7] was “Not Active”.

Take `Cc1cccc(Nc2cc(Cl)nc(SCC(=O)O)n2)c1C` [PIRINIXIC ACID]: the half-inhibitory concentration (IC50) entry in data set [1], in data set [2], in data set [3], in data set [4], in data set [5] and in data set [6] was “Not Active” in each case. Further, the 50% inhibitory concentration (IC50) entry in data set [7] is “Not Active”. Moreover, the inhibition constant (Ki) entry in data set [7] is recorded as “Not Active”.

As for `CC(C)(Sc1cc(C(C)(C)C)c(O)c(C(C)(C)C)c1)Sc1cc(C(C)(C)C)c(O)c(C(C)(C)C)c1` [PROBUCOL], the IC50 entry in data set [1], in data set [2], in data set [3], in data set [4], in data set [5] and in data set [6] was “Not Active” throughout. For the same molecule, in data set [7], the half-maximal inhibitory concentration (IC50) entry is recorded as “Not Active”. Moreover, in data set [7], the Ki result is “Not Active”.

On to COBALT(II) ACETYLACETONATE, for which the IC50 result in data set [1], in data set [2], in data set [3], in data set [4], in data set [5] and in data set [6] was “Not Active” throughout. For the same molecule, the IC50 entry in data set [7] was “Not Active”. Moreover, the Ki entry in data set [1], in data set [2], in data set [3], in data set [4], in data set [5] and in data set [6] was “Not Active” each time. The Ki result in data set [7] is “Not Active”.

As for INSULIN HUMAN, the IC50 entry is “Not Active” in data set [1]; “Not Active” in data set [2]; “Not Active” in data set [3]; “Not Active” in data set [4]; “Not Active” in data set [5]; 1.93 nM in data set [6] (read-out: IC50). Moreover, the IC50 entry in data set [7] is “Not Active”. The inhibition constant Ki entry in data set [1] is “Not Active”; in data set [2], “Not Active”; in data set [3], “Not Active”; in data set [4], “Not Active”; in data set [5] it was “Not Active”; in data set [6] (read-out: Ki) it was 1.82 nM. Moreover, the inhibition constant Ki result in data set [7] was “Not Active”.

Regarding POLYVINYL ALCOHOL, the IC50 entry in data set [1], in data set [2], in data set [3], in data set [4], in data set [5] and in data set [6] was “Not Active” in each case. For the same molecule, the IC50 result in data set [7] is given as “Not Active”. In addition, the inhibition constant Ki entry in data set [1], in data set [2], in data set [3], in data set [4], in data set [5] and in data set [6] was “Not Active” each time. In addition, the Ki result in data set [7] was “Not Active”.

Values taken from ChEMBL document CHEMBL1909046, “DrugMatrix in vitro pharmacology data”.
